Source: paper PMC7465040, “Cytotoxic and Anti-Plasmodial Activities of Stephania dielsiana Y.C. Wu Extracts and the Isolated Compounds” (Molecules, 2020)
Read-outs that look alike come from different tables or passages of the source.

Columns and labels:
MDA-MB-468 = assay: SRB cell proliferation assay, MDA-MB-468; assay type: cell-based, human
Method: (§1) In vitro anticancer study: The in vitro anti-proliferative tests were carried out as described previously, using aliquots of the cell lines used therein. Briefly, HeLa, MDA-MB-231 and MDA-MB-468, MCF7, and 184B5 and MCF 10A cell lines were purchased from ATCC. The identity of the cell lines presented in this study were verified by short tandem repeat profiling by Genetica DNA Laboratories (www.celllineauthentication.com) (April 8, 2015). MCF10A was grown in DMEM F12 medium supplemented with 0.02 μg/mL epidermal growth factor, 10% FBS, 10 μg/mL insulin and […] hydrocortisone. MDA-MB-468 were grown in DMEM supplemented with 10% FBS and antibiotics cocktail (100 μg/mL streptomycin, 100 units/mL penicillin and 250 ng/mL amphotericin B). SRB cell proliferation assays were carried out as previously described, with some minor modifications. The concentration range for all tested cell lines were from 100–0.39 μg/mL for extracts and 100–0.39 μM for pure compounds. […] All experiments were carried out at least twice.

Aurora B = target: T1, Aurora B (Homo sapiens, UniProt Q96GD4); assay: In vitro kinase assay (ADP-Glo), Aurora B; assay type: biochemical; settings: ± standard deviation, n = 2
T1 construct: purchased Promega
T1 sequence (Q96GD4 whole entry): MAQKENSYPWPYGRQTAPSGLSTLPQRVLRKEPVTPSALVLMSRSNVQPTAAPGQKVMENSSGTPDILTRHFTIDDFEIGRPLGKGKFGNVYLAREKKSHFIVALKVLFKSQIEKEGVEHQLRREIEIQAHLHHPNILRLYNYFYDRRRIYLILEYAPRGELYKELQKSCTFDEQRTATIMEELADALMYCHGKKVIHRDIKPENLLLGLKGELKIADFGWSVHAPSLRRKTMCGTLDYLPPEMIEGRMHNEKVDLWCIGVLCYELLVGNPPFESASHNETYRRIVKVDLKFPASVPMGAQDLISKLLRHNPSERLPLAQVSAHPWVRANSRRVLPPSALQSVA
Method: (§2) In vitro kinase assay: The Aurora A and B kinase assays were carried out using the Promega ADP-Glo based Kinase Activity Profiling system. The protocols for the Aurora A/(Myelin Basic Protein (MBP) and Aurora B/MBP assay kits were according to those recommended by the suppliers. The concentration range used was from 20 μM–39.1 nM in 384-well plates. The luminescent output from the kinase assay was read on a Biotek Synergy H4 plate reader.

Aurora A = target: T2, Aurora A (Homo sapiens, UniProt O14965); assay: In vitro kinase assay (ADP-Glo), Aurora A; assay type: biochemical; settings: ± standard deviation, n = 2
T2 construct: purchased Promega
T2 sequence (O14965 1-403): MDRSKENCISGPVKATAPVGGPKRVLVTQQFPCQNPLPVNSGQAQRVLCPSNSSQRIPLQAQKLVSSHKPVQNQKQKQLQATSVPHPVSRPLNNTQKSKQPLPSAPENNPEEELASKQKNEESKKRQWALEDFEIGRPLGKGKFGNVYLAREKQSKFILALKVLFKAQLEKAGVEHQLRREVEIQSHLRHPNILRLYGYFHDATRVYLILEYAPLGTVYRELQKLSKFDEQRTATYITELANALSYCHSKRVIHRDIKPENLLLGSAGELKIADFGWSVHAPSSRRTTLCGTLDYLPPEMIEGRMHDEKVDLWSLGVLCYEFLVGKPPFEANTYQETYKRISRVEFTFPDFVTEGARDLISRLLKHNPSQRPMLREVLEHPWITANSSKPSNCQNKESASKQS
Method: as §2

[1] = tested on: chloroquine-susceptible 3D7 P. falciparum strain; assay: In vitro anti-plasmodial assay (HRP2 ELISA), 3D7; assay type: cell-based, Plasmodium falciparum; settings: for IC50: 72 h, HRP2 ELISA, mean of five experiments, read-out: IC50 (μM ± SD) 3D7
Method: Parasites were grown in A-positive human blood (Etablissement Français du Sang, Marseille, France) under controlled atmospheric conditions that consisted of 10% O2, 5% CO2, and 85% N2 at 37 °C with a humidity of 95%.
In vitro anti-plasmodial assay: The two P. falciparum strains 3D7 and W2 were synchronized twice with sorbitol before use. The clonality of these strains was verified both in our laboratory and in an independent laboratory from the Worldwide Anti-malarial Resistance Network (WWARN) by PCR genotyping of the polymorphic genetic markers msp1 and msp2 and microsatellite loci. The compounds were re-suspended in methanol or DMSO 5% (v/v) and then diluted in methanol to obtain final concentrations ranging from 0.008 to 500 μg/mL (final concentration of 0.5% of methanol or DMSO). […] The plates were incubated for 72 h at 37 °C in controlled atmospheric conditions 5% CO2, 10% O2, and […]. After thawing the plates, haemolysed cultures were homogenized by vortexing the plates. Both the success of the drug susceptibility assay and the appropriate volume of haemolysed culture to use for each assay were determined for each clinical isolate during a preliminary HRP2 ELISA. Both the pre-test and subsequent ELISA assays were performed using a commercial kit (Malaria Ag Celisa, ref KM2159, Cellabs PTY LTD, Brookvale, Australia) according to the manufacturer’s recommendation. The optical density (OD) of each sample was measured with a spectrophotometer (Safire 2, Tecan, Lyon, France). […] The anti-plasmodial in vitro assay was performed five times for each product. The IC50 values represented the mean value calculated from five experiments. According to Hout, a selectivity index (SI) was based on the ratio between anti-parasitic and cytotoxic activities. In the case of our study, a SI was calculated between non-tumorigenic cell line 184B5 and parasites 3D7 or W2 and/or MCF10A and these two parasites.

MDA-MB-231 = assay: SRB cell proliferation assay, MDA-MB-231; assay type: cell-based, human
Method: as §1

For `COc1cccc2c1C(=O)c1nccc3cc4c(c-2c13)OCO4` [Oxostephanine 1, oxostephanine], the IC50 (MDA-MB-468; Homo sapiens, MDA-MB-468, Table 2A, SRB, 72 h, read-out: IC50 (μM ± SD) MDA-MB-468) was 2.26 ± 0.54 µM, the “Selectivity index (SI) 184B5 versus MDA-MB-468” value (MDA-MB-468; Table 2B, non-cancer 184B5 vs cancer MDA-MB-468) was 0.73 and the “Selectivity index (SI) MCF10A versus MDA-MB-468” value (MDA-MB-468; Table 2B, non-cancer MCF10A vs cancer MDA-MB-468) was 1.10. For the same molecule, the IC50 (Aurora B) was 952 ± 467 nM, the IC50 (Aurora A) was 422 ± 130 nM and the IC50 [1] was 63.9 ± 18.4 µM. The IC50 ([1]; Plasmodium falciparum, 3D7, 72 h) was 63.9 to 276 µM, the “SI 3D7 184B5” value ([1]; Table 3, selectivity index between 184B5 and parasites 3D7) was 0.026 and the “SI 3D7 MCF10A” value ([1]; Table 3, selectivity index between MCF10A and parasites 3D7) was 0.039. For the same molecule, the IC50 (MDA-MB-231; Homo sapiens, MDA-MB-231, Table 2A, SRB, 72 h, read-out: IC50 (μM ± SD) MDA-MB-231) was 2.67 ± 0.29 µM, the “Selectivity index (SI) 184B5 versus MDA-MB-231” value (MDA-MB-231; Table 2B, non-cancer 184B5 vs cancer MDA-MB-231) was 0.62 and the “Selectivity index (SI) MCF10A versus MDA-MB-231” value (MDA-MB-231; Table 2B, non-cancer MCF10A vs cancer MDA-MB-231) was 0.93.
